Activity calls are given as the source filed them. The rule behind the calls is not given here.
Key:
PC-12 [1] = experiment: Neuroprotective activity against H2O2-induced cell damage in rat PC-12 cells assessed as decrease in cell death at 10 uM pretreated for 12 hrs followed by H2O2 challenge by MTT assay; type: functional, cell-based
PC-12 [2] = experiment: Cytoprotective activity against 6-OHDA induced cell death in rat PC-12 cells assessed as decrease in LDH release pretreated for 12 hrs followed by 6-OHDA challenge by LDH assay; type: functional, cell-based; conditions: dose 2.5-10 µM
PC-12 [3] = experiment: Cytoprotective activity against H2O2- induced cell death in rat PC-12 cells assessed as decrease in LDH release pretreated for 12 hrs followed by H2O2 challenge by LDH assay; type: functional, cell-based; conditions: dose 2.5-10 µM
PC-12 [4] = experiment: Protection against H2O2-induced mitochondrial dysfunction in rat PC-12 cells assessed as change in mitochondrial membrane potential at 2.5 uM pretreated with compound for 12 hrs followed by H2O2 challenge by JC-1 staining based flow cytometry (reference value: 73 %); type: functional
PC-12 [5] = experiment: Protection against 6-OHDA-induced mitochondrial dysfunction in rat PC-12 cells assessed as change in mitochondrial membrane potential at 2.5 uM pretreated with compound for 12 hrs followed by 6-OHDA challenge by JC-1 staining based flow cytometry (reference value: 56 %); type: functional
PC-12 [6] = experiment: Protection against H2O2-induced apoptosis in rat PC-12 cells assessed as early apoptic cells at 2.5 uM pretreated for 12 hrs followed by H2O2 challenge by annexin V FITC/propidium iodide staining based flow cytometry (reference value: 2.2 %); type: functional
PC-12 [7] = experiment: Protection against H2O2-induced apoptosis in rat PC-12 cells assessed as late apoptic cells at 2.5 uM pretreated for 12 hrs followed by H2O2 challenge by annexin V FITC/propidium iodide staining based flow cytometry (reference value: 20.8 %); type: functional
PC-12 [8] = experiment: Protection against H2O2-induced apoptosis in rat PC-12 cells assessed as viable cells at 10 uM pretreated for 12 hrs followed by H2O2 challenge by annexin V FITC/propidium iodide staining based flow cytometry (reference value: 73.3 %); type: functional; conditions: read-out: Activity
PC-12 [9] = experiment: Protection against H2O2-induced apoptosis in rat PC-12 cells assessed as necrotic cells at 10 uM pretreated for 12 hrs followed by H2O2 challenge by annexin V FITC/propidium iodide staining based flow cytometry (reference value: 3.7 %); type: functional
PC-12 [10] = experiment: Protection against 6-OHDA-induced apoptosis in rat PC-12 cells assessed as viable cells at 5 uM pretreated for 12 hrs followed by 6-OHDA challenge by annexin V FITC/propidium iodide staining based flow cytometry (reference value: 76.7 %); type: functional; conditions: read-out: Activity
PC-12 [11] = experiment: Protection against 6-OHDA-induced apoptosis in rat PC-12 cells assessed as early apoptotic cells at 5 uM pretreated for 12 hrs followed by 6-OHDA challenge by annexin V FITC/propidium iodide staining based flow cytometry (reference value: 2.4 %); type: functional
PC-12 [12] = experiment: Protection against 6-OHDA-induced apoptosis in rat PC-12 cells assessed as early apoptotic cells at 10 uM pretreated for 12 hrs followed by 6-OHDA challenge by annexin V FITC/propidium iodide staining based flow cytometry (reference value: 2.4 %); type: functional
PC-12 [13] = experiment: Protection against 6-OHDA-induced apoptosis in rat PC-12 cells assessed as late apoptotic cells at 10 uM pretreated for 12 hrs followed by 6-OHDA challenge by annexin V FITC/propidium iodide staining based flow cytometry (reference value: 17.3 %); type: functional
PC-12 [14] = experiment: Protection against H2O2-induced apoptosis in rat PC-12 cells assessed as cell rescue pretreated for 12 hrs followed by H2O2 challenge by Hoechst 33342 staining based confocal microscopic analysis; type: functional; conditions: dose 2.5-10 µM
PC-12 [15] = experiment: Activation of Keap1-Nrf2-ARE pathway in rat PC-12 assessed as upregulation of HO-1 protein expression measured after 12 hrs by Western blot analysis; conditions: filed as activator, dose 2.5-10 µM
PC-12 [16] = experiment: Activation of Keap1-Nrf2-ARE pathway in rat PC-12 assessed as upregulation of TrxR1 protein expression measured after 12 hrs by Western blot analysis; conditions: filed as activator, dose 2.5-10 µM
PC-12 [17] = experiment: Activation of Keap1-Nrf2-ARE pathway in rat PC-12 assessed as upregulation of GCLC protein expression measured after 12 hrs by Western blot analysis; conditions: filed as activator, dose 2.5-10 µM
PC-12 [18] = experiment: Activation of Keap1-Nrf2-ARE pathway in rat PC-12 assessed as upregulation of total Nrf2 protein expression at 10 uM measured after 3 hrs by Western blot analysis; conditions: filed as activator
PC-12 [19] = experiment: Activation of Keap1-Nrf2-ARE pathway in rat PC-12 assessed as upregulation of TrxR1 protein expression at 10 uM measured after 6 to 24 hrs by Western blot analysis; conditions: filed as activator, time 6-24 hrs
[20] = target: T1, Nuclear factor erythroid 2-related factor 2 (Mus musculus) (UniProt Q60795); experiment: Activation of Nrf2 in mouse BV-2 cells assessed as decrease in LPS-induced NO production pretreated with compound for 2 hrs followed by LPS stimulation and further incubated for 18 hrs by Griess reagent based assay; type: cell-based; conditions: filed as activator, dose 10.0 µM, time 20.0 hrs
T1 sequence (whole entry): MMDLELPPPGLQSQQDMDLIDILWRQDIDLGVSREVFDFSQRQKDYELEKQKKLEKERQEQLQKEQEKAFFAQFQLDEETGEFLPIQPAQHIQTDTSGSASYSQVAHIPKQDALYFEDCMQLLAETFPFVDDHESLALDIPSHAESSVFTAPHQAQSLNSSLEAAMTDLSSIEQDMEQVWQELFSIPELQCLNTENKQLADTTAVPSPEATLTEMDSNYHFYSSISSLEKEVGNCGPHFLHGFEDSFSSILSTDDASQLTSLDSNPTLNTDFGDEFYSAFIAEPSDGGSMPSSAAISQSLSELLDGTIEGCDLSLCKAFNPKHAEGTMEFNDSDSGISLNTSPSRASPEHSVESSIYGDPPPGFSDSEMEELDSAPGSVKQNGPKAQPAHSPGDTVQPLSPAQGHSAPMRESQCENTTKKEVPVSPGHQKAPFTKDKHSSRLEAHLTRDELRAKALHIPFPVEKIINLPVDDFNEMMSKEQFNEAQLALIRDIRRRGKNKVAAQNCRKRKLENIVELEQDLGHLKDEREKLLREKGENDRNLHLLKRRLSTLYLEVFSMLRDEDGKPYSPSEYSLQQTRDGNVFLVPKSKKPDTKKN

[21] = target: T1, Nuclear factor erythroid 2-related factor 2 (Mus musculus); experiment: Activation of Nrf2 in mouse BV-2 cells assessed as decrease in LPS-induced IL-6 production pretreated with compound for 2 hrs followed by LPS stimulation and further incubated for 18 hrs […]; type: cell-based; conditions: filed as activator, dose 10.0 µM, time 20.0 hrs
[22] = target: T1, Nuclear factor erythroid 2-related factor 2 (Mus musculus); experiment: Activation of Nrf2 in mouse BV-2 cells assessed as upregulation of HO-1 protein expression after 24 hrs by Western blot analysis; type: cell-based; conditions: filed as activator, dose 2.5-10 µM
[23] = target: T1, Nuclear factor erythroid 2-related factor 2 (Mus musculus); experiment: Activation of Nrf2 in mouse BV-2 cells assessed as upregulation of Nrf2 protein expression after 24 hrs by Western blot analysis; type: cell-based; conditions: filed as activator, dose 2.5-10 µM
[24] = target: T1, Nuclear factor erythroid 2-related factor 2 (Mus musculus); experiment: Activation of Nrf2 in mouse BV-2 cells assessed as upregulation of TrxR1 protein expression after 24 hrs by Western blot analysis; type: cell-based; conditions: filed as activator, dose 2.5-10 µM
[25] = target: T1, Nuclear factor erythroid 2-related factor 2 (Mus musculus); experiment: Activation of Nrf2 in mouse BV-2 cells assessed as upregulation of GCLM protein expression after 24 hrs by Western blot analysis; type: cell-based; conditions: filed as activator, dose 2.5-10 µM

CN1C(N)=N[C@](C)(c2cc(-n3[se]c4cc(F)ccc4c3=O)ccc2F)CS1(=O)=O
Activity (PC-12 [1]): Active | Activity (PC-12 [2]): Dose-Dependent Effect | Activity (PC-12 [3]): Dose-Dependent Effect | Activity (PC-12 [4]): 75.1% | Activity (PC-12 [5]): 61.2% | Activity (PC-12 [6]): 2% | Activity (PC-12 [7]): 12.3% | viability at 10 µM (PC-12 [8]): 92.6% | Activity (PC-12 [9]): 0.6% | viability at 5 µM (PC-12 [10]): 83.4% | Activity (PC-12 [11]): 2.5% | Activity (PC-12 [12]): 1.4% | Activity (PC-12 [13]): 6.7% | Activity (PC-12 [14]): Dose-Dependent Effect | Activity (PC-12 [15]): Active | Activity (PC-12 [16]): Active | Activity (PC-12 [17]): Active | Activity (PC-12 [18]): Active | Activity (PC-12 [19]): Active | Activity [20]: Active | Activity [21]: Active | Activity [22]: Dose-Dependent Effect | Activity [23]: Dose-Dependent Effect | Activity [24]: Dose-Dependent Effect | Activity [25]: Dose-Dependent Effect

From ChEMBL document CHEMBL4811256, “Synthesis and evaluation of multi-target-directed ligands with BACE-1 inhibitory and Nrf2 agonist activities as potential agents against Alzheimer's disease” (Eur J Med Chem, 2021)
